The experiment deals with S. Typhi PhoP-promoter GFP reporter, fluorescence, 4 h. Briefly: modified counter assay using GFP fluorescence, PhoP regulon inhibitor project, dose response (AID 1985).

As usually defined, the IC50 is the concentration needed to halve the response being measured. As to `CN(C)[C@@H]1C(=O)C(C(N)=O)=C(O)[C@@]2(O)C(=O)C3=C(O)c4c(O)cccc4[C@@](C)(O)C3[C@H](O)C12` (some centres not stated), the IC50 was 2.99 µM. For `CCc1nccc2c1[nH]c1ccccc12` the value was 123 µM; for `O=C(Nc1ccc2nc(-c3ccc(Br)o3)[nH]c2c1)c1cccs1`, 78.7 µM. For `O=C(NC(=S)NNC(=O)c1cccs1)c1ccco1`, the half-inhibitory concentration (IC50) was 39.7 µM. Regarding `O=[N+]([O-])c1cc(/C=N/Nc2nc3ccccc3[nH]2)c(O)cc1O`, the IC50 is 24.8 µM. For `O=C(/C=C/c1cccs1)NC(=S)NNC(=O)c1ccccc1O` the value was 27 µM.

In the case of `COc1cc(/C=C2/C(=O)NN(c3ccc(C)c(Cl)c3)C2=O)cc([N+](=O)[O-])c1O`, the IC50 is 46.6 µM.

`CCc1ccc(NC(=O)C[n+]2cc(-c3ccc(C)cc3)n3c2CCC3)cc1`: the IC50 is 69.8 µM.

As for `Cc1ccc(NC(=O)CS(=O)CC(=O)Nc2ccccc2-c2ccc(C)o2)cc1` (configuration not stated), the IC50 was 66.8 µM. `Oc1ccccc1Nc1nc(NCc2ccco2)c2ccccc2n1`: the half-maximal inhibitory concentration (IC50) was 137 µM. For `CCN1CCN(CCNC(=O)c2ccc3c(c2)N(Cc2ccc(F)cc2)C(=O)/C(=C/c2ccccc2)S3)CC1` the value was 125 µM. Then `O=C(O)c1cn(-c2ccc(F)cc2)c2cc(Cl)c(F)cc2c1=O`, with 89.8 µM.

For `Cc1cc(=O)[nH]c(-n2nc(C)cc2C)n1`, the 50% inhibitory concentration (IC50) is 67.5 µM. Then `CN1CCN(C(c2ccc(C(F)(F)F)cc2)c2ccc3cccnc3c2O)CC1` (configuration not stated), with 34.9 µM; and `CC(C)(C)c1ccc(OCCCCCCN2CCNCC2)cc1`, with 127 µM; and `CCCCCC[N+](C)(C)CC/C=C1/c2ccccc2Sc2ccc(Cl)cc21`, with 36.3 µM.

On to `C(=N/Nc1nccs1)/c1cccnc1`, for which the IC50 was 61.5 µM. Then `CCn1cc(C(=O)O)c(=O)c2cnc(N3CCNCC3)nc21`, with 113 µM.

`NC1CCN(c2nc3c(cc2F)c(=O)c(C(=O)O)cn3-c2ccc(F)cc2F)C1` (configuration not stated): the IC50 is below 0.23 µM. Then `O=C(CCN1CCOCC1)N/N=C/c1cc(Br)cc(Br)c1O`, with 30.7 µM; and `Cc1cc([N+](=O)[O-])cc(/C=N/n2c(C)nc3ccccc3c2=O)c1O`, with 53.6 µM. For the molecule `COc1ccc(Cc2nnc(N/N=C/c3ccc(O)cc3)[nH]c2=O)cc1OC`, the 50% inhibitory concentration (IC50) is 54.8 µM.

Consider `COc1cc(CNCCc2ccccc2)cc(Cl)c1OCc1ccccc1`, for which the IC50 was 78.9 µM. Then `CN(C)CCCNc1cc(C(C)(C)C)nc2c(-c3ccc(Cl)cc3)cnn12`, with 34.8 µM. Then `CC(C)CCC(CCNCc1ccccn1)c1ccc(Cl)cc1` (configuration not stated), with 79.4 µM; and `COc1cccc(Nc2nc(NCC3CCCO3)c3ccccc3n2)c1` (configuration not stated), with 34.2 µM.

On to `CN(C)CC/C=C1/c2cc(F)ccc2Sc2ccc(Cl)cc21`, for which the IC50 is 84.9 µM. Take `CCc1cccc2c(C(=O)COC(=O)c3ccc([N+](=O)[O-])s3)c[nH]c12`: the IC50 is 10.4 µM. Then `CC(=O)Oc1ccccc1C(=O)Nc1ncc([N+](=O)[O-])s1`, with 149 µM; and `O=C(Nc1ccccc1)Nc1nccs1`, with 128 µM; and `Cc1nc(N)c(Cc2ccc(Cl)cc2Cl)c(N)n1`, with 83.9 µM.

Regarding `Cc1ccc(CNCCC2=CCCCC2)cc1`, the IC50 is 81.9 µM. For `Cc1cccc(Nc2cc(C)c3c(O)cccc3n2)c1C` the value was 49.6 µM.

Regarding `CNCc1c(OCc2ccccc2F)ccc2ccccc12`, the IC50 is 127 µM. As to `O=C(O)c1cn(C2CC2)c2cc(N3CCN(S(=O)(=O)c4ccc5c(c4)OCCO5)CC3)c(F)cc2c1=O`, the 50% inhibitory concentration (IC50) is 28.2 µM. Consider `CCCCCCC[N+](CC)(CC)CCCCc1ccc(Cl)cc1`, for which the IC50 is 80 µM. Consider `C[C@H]1COc2c(C3(N)CC3)c(F)cc3c(=O)c(C(=O)O)cn1c23`, for which the IC50 was below 0.23 µM. Then `OC1CCCN(Cc2ccc3ccc4cccc5ccc2c3c45)C1` (configuration not stated), with 118 µM; and `O=C1Nc2ccccc2C1=Nc1ccc(S(=O)(=O)Nc2nccs2)cc1`, with 90.1 µM; and `CC1(C)CC(=O)c2c(nc3ccccc3c2N)C1`, with 143 µM.

Turning to `Cc1ccc(C(=O)NCCN2C3=NC[C@@H](Cc4ccccc4)N3C[C@H]2Cc2ccc(O)cc2)cc1Br`, the IC50 is 121 µM. For `Cc1ccc(Cn2c(=N)n(CC(O)COc3ccccc3)c3ccccc32)cc1` (configuration not stated) the value was 83.6 µM; for `Nc1nc(Nc2ccc(Cl)cc2)nc2ccccc12`, 33 µM. For `Cc1ccc(NC(=O)C(=O)NNC(=O)c2cccs2)cc1` the value was 13.2 µM. For `CCN(CC)c1ccc(CNc2nc3ccccc3n2CCN2CCCCC2)cc1` the value was 145 µM; for `Cc1ccc(Nc2nc(N)c3ccccc3n2)cc1Cl`, 68.5 µM. As for `CCn1cc(C(=O)O)c(=O)c2cc(F)c(N3CCN(S(=O)(=O)c4ccc(NC(C)=O)cc4)CC3)cc21`, the IC50 was 86.6 µM. For `O=c1c2ccccc2[nH]c2ccccc12` the value was 27.2 µM; for `CCCCCCCCNC(C)C(O)c1ccc(SC(C)C)cc1` (configuration not stated), 41.8 µM. For `O=C(NC(C(=O)c1ccccc1)n1c(=O)cc[nH]c1=S)c1ccccc1` (configuration not stated) the value was 120 µM; for `CCS(=O)(=O)c1ccc2oc(=O)c(/C=C(\O)c3ccc(Cl)cc3)nc2c1`, 65.1 µM. For `CC(C(=O)NC1CCS(=O)(=O)C1)N1C(=O)/C(=C/c2ccc(Cl)cc2)SC1=S` (configuration not stated), the 50% inhibitory concentration (IC50) was 18.3 µM. For `CN1CCN(Cc2cc(COCc3ccccc3)c3cccnc3c2O)CC1` the value was 62.9 µM; for `COc1ccc(Cl)cc1S(=O)(=O)N1CCN(C(=O)c2ccco2)CC1`, 145 µM; for `CCCCCCCCCCOC(=O)Cn1c(COc2cccc(C)c2)[n+](C)c2ccccc21`, 15.9 µM.

In the case of `C#CCOCCOCCOCCNc1nc(N2CCN(C(=O)CCCCCCCCCCNC(=O)[C@H](CCCCN)n3cc(C)nn3)CC2)nc(N2CCN(C(=O)CCCCCCCCCCNC(=O)[C@H](CCCN=C(N)N)n3cc(C[C@@H](C)CC)nn3)CC2)n1`, the IC50 is 31.9 µM. For `O=C(N/N=C/c1cc([N+](=O)[O-])ccc1O)C1CC1`, the IC50 was 14.9 µM. For `CC[C@H]1OC(=O)C[C@@H](O)[C@H](C)[C@@H](O[C@@H]2O[C@H](C)C[C@H](N(C)C)[C@H]2O)[C@@H](CC=O)C[C@@H](C)C(=O)C=C[C@]2(C)O[C@H]2[C@@H]1C` the value was 9.29 µM; for `c1ccc(Sc2cccc3ccccc23)c(CNC2=NCCN2)c1`, 80 µM. Then `CCCCCN=C(N)N/N=C/c1c[nH]c2ccc(OC)cc12`, with 35.6 µM; and `C/C(=N\NC(=O)c1cccc(Br)c1)c1ccccn1`, with 54.4 µM; and `COc1cc([N+](=O)[O-])cc(/C=N/NC(=O)c2cccnc2)c1O`, with 66.7 µM. For `CCc1ccc2c(c1)C1(NN=C(c3ccc(C)cc3)S1)C(=O)N2` (configuration not stated), the half-inhibitory concentration (IC50) is 24.4 µM. Then `Cc1ccccc1C(=O)N/N=C/c1ccc([N+](=O)[O-])s1`, with 29 µM. With `O=C(Nc1c2ccccc2nc2ccccc12)C(Cl)(Cl)Cl`, the concentration for half-maximal inhibition (IC50) is 43.8 µM. In the case of `CCCCC(CC)CN=C(N)NC(N)=NCCCCCCN=C(N)NC(N)=NCC(CC)CCCC` (configuration not stated), the half-inhibitory concentration (IC50) is 2.61 µM. Then `C(=N\Nc1ccccn1)/c1cccnc1`, with 37.5 µM; and `CCCCn1c(NS(=O)(=O)c2ccccc2)c(C(=O)OCC)c2nc3ccccc3nc21`, with 110 µM; and `O=C(Nc1c(Cl)ccc2nsnc12)c1ccc([N+](=O)[O-])o1`, with 56.7 µM. For `Cc1ccc(CC(=O)Nc2ncc([N+](=O)[O-])s2)cc1` the value was 94.4 µM; for `Oc1ccc(N=Nc2ccc(Br)cc2)c(O)c1`, 87.8 µM. For `C/C(=C\C(=O)OCCCCCCCCC(=O)O)C[C@@H]1OC[C@H](C[C@@H]2O[C@H]2[C@@H](C)[C@H](C)O)[C@@H](O)[C@H]1O` the value was 17.5 µM.

In the case of `Nc1nonc1C(=O)N/N=C/c1cc(Br)ccc1O`, the IC50 is 12.7 µM.

With `COc1ccc(C(=O)NNC(=S)NC(=O)c2ccccc2)cc1`, the IC50 is 82.5 µM. Then `CN(C)c1ccc(O)c2c1CC1CC3[C@@H](N(C)C)C(=O)C(C(N)=O)=C(O)[C@]3(O)C(=O)C1=C2O` (some centres not stated), with 5.1 µM.

On to `OCCN1CCN(C2Cc3cc(Cl)ccc3Sc3ccc(Cl)cc32)CC1` (configuration not stated) (tested in a mixture with another compound), for which the IC50 was 74.8 µM. Regarding `O=C(N/N=C/c1cc(Br)cc(Br)c1O)c1ccncc1`, the IC50 is 34.5 µM. As for `OCCCCNCc1ccc(OCc2ccc(Cl)cc2Cl)cc1`, the IC50 was 133 µM.

On to `Cc1ccc(NC(=O)c2ccccc2)s1`, for which the IC50 is 91.9 µM.

As for `Cc1cc(C)n2nc(S(=O)(=O)Nc3c(Cl)cccc3Cl)nc2n1`, the 50% inhibitory concentration (IC50) was 11.1 µM. For `CN(C)C1C(=O)C(C(N)=O)=C(O)C2(O)C(=O)C3=C(O)c4c(O)cccc4C(C)(O)C3C(O)C12` (configuration not stated) the value was 1.54 µM; for `CCOC(=O)c1c(N)sc(C(=O)Nc2ccc3c(c2)OCO3)c1C`, 137 µM. For `CCOC(=O)N1CCN(C(=O)c2cn(CC)c3cc(N4CCN(C)CC4)c(F)cc3c2=O)CC1` the value was 7.67 µM; for `COc1c2ccccc2nc2ccccc12`, 28.8 µM; for `Fc1cccc(Nc2c3c(nc4ccccc24)CCC3)c1`, 126 µM. For `NC1=NC[C@@H](Cc2ccc(O)cc2)N1CCCCC1CCCCC1` the value was 32.5 µM; for `O=Cc1c(Cl)nc2ccccn2c1=O`, 132 µM. For `COc1ccc(C2NCCc3c2[nH]c2ccccc32)cc1COc1ccc(F)cc1` (configuration not stated), the IC50 is 78.5 µM. As to `O=C1c2ccccc2NC(c2ccc(-c3ccc(Br)cc3)o2)N1O` (configuration not stated), the half-inhibitory concentration (IC50) is 81.1 µM. For `COc1ccc(N2C3=C(CC4=C2CC(C)(C)CC4=O)C(=O)CC(C)(C)C3)cc1` the value was 146 µM; for `O=C(NC(=S)NNC(=O)c1ccccc1O)c1ccco1`, 23.8 µM; for `CCCCOc1ccc(NC2=NC3(CCCC3)N=C(N)N2)cc1`, 72.9 µM. Then `Cc1nonc1C(=O)N/N=C/c1ccc([N+](=O)[O-])o1`, with 24.7 µM; and `NC1=NC[C@H](Cc2ccccc2)N1CCCCC1CCCCC1`, with 36.1 µM; and `O=c1cc(-c2ccccc2)nc2nc(-c3ccco3)[nH]n12`, with 139 µM. Consider `COC(=O)C1C(O)C(C)C(O)C(C)/C=C\C=C(/C)C(=O)Nc2c(C)c(OC(C)=O)c3c(c2O)C(=O)C(C)=C2OCOC(=C23)/C(C)=C/C(C)(O)C(O)C(C)C1O` (configuration not stated), for which the IC50 is 24.4 µM. For `CCn1cc(C(=O)O)c(=O)c2cc(F)c(N3CCN(C(=S)Nc4ccccc4OC)CC3)cc21` the value was 6.7 µM.

(Values after PubChem BioAssay AID1985 (Southern Research Specialized Biocontainment Screening …, 2009).)
